Holding throughout (type): biochemical
Common to all, as to details: In Vitro

Experiment [1] concerns the target T1, PI3K γ (Homo sapiens, UniProt P48736).
T1 construct: purchased Sigma
Description: PI3K lipid kinase inhibition assay (TLC or HTRF), PI3K γ. The text has this:
(§1) Other commercial kits or systems for assaying PI3K activities are available. […] An exemplary system is PI 3-Kinase (human) HTRF™ Assay from Upstate.
(In TR-FRET formats the signal depends on donor and acceptor labels being close together.)

Experiment [2] has as its target PI3K δ (Homo sapiens, UniProt O00329). Description: PI3K lipid kinase inhibition assay (TLC or HTRF), PI3K δ. Also noted: purchased Upstate.
Text: as §1

For experiment [3], the target named is T2, PI3K β (Homo sapiens, UniProt P42338).
T2 construct: purchased Upstate
Description: PI3K lipid kinase inhibition assay (TLC or HTRF), PI3K β.
Text: as §1

Structures are written as SMILES.

The results in this text go back to patent US20160113932A1, “TREATMENT OF CANCERS USING PI3 KINASE ISOFORM MODULATORS” (INFINITY PHARMACEUTICALS, INC., priority 2013, published 2016).

Broadly, the IC50 is the midpoint of a concentration-inhibition curve. Read a low IC50 as inhibition by little substance.

T1 sequence (P48736 whole entry): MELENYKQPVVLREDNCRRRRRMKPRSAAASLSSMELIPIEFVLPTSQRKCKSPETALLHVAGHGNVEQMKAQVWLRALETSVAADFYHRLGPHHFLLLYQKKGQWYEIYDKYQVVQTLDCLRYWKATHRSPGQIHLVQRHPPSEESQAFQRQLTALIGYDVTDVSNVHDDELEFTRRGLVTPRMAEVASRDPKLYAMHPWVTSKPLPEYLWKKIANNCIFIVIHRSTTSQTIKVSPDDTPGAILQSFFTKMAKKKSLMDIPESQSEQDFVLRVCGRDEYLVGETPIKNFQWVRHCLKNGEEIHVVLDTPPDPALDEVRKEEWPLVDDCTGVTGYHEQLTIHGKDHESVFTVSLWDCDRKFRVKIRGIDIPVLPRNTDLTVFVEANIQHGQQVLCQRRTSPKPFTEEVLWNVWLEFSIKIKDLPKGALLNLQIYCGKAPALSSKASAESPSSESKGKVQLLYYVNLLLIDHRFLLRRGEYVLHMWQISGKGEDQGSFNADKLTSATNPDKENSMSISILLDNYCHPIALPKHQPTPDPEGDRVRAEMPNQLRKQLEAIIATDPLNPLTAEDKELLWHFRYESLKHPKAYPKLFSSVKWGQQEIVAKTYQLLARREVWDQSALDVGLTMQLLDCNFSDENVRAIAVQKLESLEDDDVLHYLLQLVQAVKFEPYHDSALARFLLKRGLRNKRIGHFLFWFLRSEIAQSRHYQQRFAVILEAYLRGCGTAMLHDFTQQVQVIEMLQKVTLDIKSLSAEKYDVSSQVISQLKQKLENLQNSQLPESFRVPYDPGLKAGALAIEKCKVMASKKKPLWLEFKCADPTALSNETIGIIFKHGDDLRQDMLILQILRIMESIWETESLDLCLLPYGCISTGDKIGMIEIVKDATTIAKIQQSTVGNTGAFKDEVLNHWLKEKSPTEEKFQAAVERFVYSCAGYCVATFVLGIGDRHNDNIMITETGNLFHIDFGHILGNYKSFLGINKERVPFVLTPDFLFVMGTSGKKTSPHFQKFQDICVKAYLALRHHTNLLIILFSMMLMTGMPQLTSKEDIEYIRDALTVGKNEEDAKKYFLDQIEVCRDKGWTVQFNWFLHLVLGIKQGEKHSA
Sequence of PI3K δ (O00329 whole entry): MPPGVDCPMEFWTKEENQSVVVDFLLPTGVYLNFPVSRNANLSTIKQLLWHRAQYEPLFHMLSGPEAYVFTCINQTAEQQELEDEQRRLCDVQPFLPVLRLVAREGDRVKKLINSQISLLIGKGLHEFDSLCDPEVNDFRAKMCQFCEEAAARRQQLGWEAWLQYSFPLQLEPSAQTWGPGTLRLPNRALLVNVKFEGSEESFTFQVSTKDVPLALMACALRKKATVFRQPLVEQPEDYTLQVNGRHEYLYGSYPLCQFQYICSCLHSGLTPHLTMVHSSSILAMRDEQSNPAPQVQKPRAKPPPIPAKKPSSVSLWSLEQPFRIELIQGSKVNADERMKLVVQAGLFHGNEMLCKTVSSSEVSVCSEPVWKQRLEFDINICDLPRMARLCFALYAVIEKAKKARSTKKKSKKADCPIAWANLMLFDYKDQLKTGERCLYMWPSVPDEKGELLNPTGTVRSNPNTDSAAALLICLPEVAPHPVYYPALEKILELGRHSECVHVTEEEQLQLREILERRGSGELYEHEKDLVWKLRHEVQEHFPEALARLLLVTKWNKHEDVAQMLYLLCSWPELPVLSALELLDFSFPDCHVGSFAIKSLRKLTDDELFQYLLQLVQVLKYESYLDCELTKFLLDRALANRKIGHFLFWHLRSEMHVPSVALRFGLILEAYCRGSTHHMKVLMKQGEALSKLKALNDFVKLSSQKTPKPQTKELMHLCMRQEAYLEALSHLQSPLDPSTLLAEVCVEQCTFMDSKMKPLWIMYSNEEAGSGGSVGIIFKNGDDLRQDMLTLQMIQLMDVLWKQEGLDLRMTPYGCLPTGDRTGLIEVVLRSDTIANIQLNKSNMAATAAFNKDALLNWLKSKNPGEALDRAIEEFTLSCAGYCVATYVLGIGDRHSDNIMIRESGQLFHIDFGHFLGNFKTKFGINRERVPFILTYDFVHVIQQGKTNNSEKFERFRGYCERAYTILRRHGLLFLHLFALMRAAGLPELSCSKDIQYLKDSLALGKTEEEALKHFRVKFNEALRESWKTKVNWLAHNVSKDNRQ
Sequence of PI3K δ (P27986 whole entry partner): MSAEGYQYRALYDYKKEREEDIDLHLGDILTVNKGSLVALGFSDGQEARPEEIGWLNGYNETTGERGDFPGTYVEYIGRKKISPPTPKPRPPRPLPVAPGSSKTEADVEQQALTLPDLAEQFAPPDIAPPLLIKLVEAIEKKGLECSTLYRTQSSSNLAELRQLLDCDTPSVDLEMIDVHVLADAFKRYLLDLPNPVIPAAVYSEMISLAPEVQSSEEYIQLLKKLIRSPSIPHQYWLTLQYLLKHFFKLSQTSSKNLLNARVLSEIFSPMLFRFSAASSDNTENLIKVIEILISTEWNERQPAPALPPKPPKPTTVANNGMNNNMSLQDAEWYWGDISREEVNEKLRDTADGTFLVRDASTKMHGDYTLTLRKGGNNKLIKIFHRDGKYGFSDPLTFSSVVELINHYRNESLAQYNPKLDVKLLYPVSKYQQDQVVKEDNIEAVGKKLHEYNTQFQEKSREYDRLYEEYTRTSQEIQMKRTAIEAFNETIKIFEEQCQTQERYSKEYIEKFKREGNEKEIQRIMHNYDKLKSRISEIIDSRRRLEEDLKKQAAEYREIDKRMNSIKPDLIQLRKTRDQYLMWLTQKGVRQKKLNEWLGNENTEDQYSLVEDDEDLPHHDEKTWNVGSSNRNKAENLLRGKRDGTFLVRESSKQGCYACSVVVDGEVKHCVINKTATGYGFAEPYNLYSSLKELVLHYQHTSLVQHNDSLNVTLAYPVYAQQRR
T2 sequence (P42338 whole entry): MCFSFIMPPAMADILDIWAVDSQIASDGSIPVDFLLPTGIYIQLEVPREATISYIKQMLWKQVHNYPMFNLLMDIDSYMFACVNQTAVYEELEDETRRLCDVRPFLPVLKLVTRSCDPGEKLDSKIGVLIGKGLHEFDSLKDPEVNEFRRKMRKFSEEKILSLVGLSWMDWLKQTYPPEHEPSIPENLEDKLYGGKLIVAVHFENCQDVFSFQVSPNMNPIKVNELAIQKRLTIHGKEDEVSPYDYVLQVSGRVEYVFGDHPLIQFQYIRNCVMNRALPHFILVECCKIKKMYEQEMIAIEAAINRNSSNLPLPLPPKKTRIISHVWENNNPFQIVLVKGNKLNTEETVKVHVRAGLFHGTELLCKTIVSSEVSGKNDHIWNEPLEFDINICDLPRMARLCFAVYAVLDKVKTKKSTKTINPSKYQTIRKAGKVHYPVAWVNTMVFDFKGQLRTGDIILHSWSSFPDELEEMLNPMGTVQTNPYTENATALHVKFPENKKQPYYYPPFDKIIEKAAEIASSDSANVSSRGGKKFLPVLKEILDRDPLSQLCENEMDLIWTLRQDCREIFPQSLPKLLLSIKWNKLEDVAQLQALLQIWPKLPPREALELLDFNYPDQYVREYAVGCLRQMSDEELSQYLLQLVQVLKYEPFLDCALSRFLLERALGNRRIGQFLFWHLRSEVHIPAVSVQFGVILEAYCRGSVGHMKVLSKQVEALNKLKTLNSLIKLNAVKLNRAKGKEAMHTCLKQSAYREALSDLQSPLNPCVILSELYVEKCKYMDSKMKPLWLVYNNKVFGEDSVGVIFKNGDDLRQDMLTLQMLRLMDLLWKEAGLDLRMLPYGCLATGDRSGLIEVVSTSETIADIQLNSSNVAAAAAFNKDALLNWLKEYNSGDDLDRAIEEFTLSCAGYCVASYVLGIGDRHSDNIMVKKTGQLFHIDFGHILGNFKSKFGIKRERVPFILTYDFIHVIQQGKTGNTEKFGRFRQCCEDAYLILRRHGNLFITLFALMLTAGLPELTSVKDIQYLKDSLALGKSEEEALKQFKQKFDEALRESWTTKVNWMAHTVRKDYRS
T2 sequence (P27986 whole entry partner): as the sequence (P27986 whole entry partner) above

For the compound `Cc1ccccc1-n1c(Cn2cnc3c(N)ncnc32)cc2cccc(C)c2c1=O` [Compound 5], the values for the IC50 in experiment [1] and in experiment [2] were above 10000 nM and below 10000 nM, respectively.

Turning to `Cc1cccnc1-n1c(Cn2nc(-c3cccc(O)c3)c3c(N)ncnc32)cc2ccccc2c1=O` [Compound 94], the IC50 in experiment [1] was below 10000 nM; in experiment [2], below 1000 nM.

As for `Cc1ccccc1-n1c(Cn2nc(I)c3c(N)ncnc32)cc2cccc(C)c2c1=O` [Compound 104], the values for the IC50 in experiment [1] and in experiment [3] were below 1000 nM and above 10000 nM, respectively.

Compound `Cc1ccccc1-n1c(Cn2nc(-c3cc(O)cc(F)c3)c3c(N)ncnc32)cc2cccc(C)c2c1=O` [Compound 113] came in with an IC50 in experiment [3] below 10000 nM.

Consider `Cc1ccccc1-n1c(Cn2nc(-c3cccc(O)c3)c3c(N)nccc32)cc2cccc(C)c2c1=O` [Compound 119], for which the 50% inhibitory concentration (IC50) in experiment [2] is below 100 nM.

For `Cc1cccc2cc(Cn3nc(-c4ccc(Cl)c(O)c4)c4c(N)ncnc43)n(C(C)C)c(=O)c12` [Compound 123], in experiment [2], the IC50 is below 100 nM.

In experiment [2], `Cc1cccc2cc(Cn3nc(I)c4c(N)ncnc43)n(C(C)C)c(=O)c12` [Compound 129] had a half-maximal inhibitory concentration (IC50) below 10000 nM.
